Results from patent publication US11547707B2, “Carbamoyl cyclohexane derivatives for treating autism spectrum disorder” (Richter Gedeon Nyrt., priority 2019, dated 2023).
Where two headings read alike, the source gives them in different places.

Tests used:
Fmr1 knock-out mice = conditions: Lim et al. 2014; cited from earlier work
dopamine D2 receptor [1] = biological target: T1, dopamine D2 receptor (Homo sapiens, UniProt P14416); test: functional activity at dopamine D2 receptor; format: biochemical; conditions: Compound 2, company data
[2] = biological target: T2, serotonin 5-HT1A receptor (Homo sapiens, UniProt P08908); conditions: Compound 2, company data
T2 sequence (P08908 1-422): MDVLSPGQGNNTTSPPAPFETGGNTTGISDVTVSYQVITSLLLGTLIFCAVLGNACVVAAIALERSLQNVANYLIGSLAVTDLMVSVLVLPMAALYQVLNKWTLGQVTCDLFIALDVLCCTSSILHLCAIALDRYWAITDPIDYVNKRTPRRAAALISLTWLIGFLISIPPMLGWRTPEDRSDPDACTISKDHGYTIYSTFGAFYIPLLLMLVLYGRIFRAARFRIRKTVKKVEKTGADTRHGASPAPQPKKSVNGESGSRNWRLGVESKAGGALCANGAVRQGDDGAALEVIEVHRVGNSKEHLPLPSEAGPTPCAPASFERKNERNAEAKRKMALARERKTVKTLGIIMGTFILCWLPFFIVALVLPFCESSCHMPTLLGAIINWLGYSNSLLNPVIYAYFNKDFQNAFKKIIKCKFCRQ

[3] = biological target: T3, serotonin 5-HT2B receptor (Homo sapiens, UniProt P41595); test: functional activity at serotonin 5-HT2B receptor; format: biochemical; conditions: Compound 2, company data
[4] = test system: prenatally valproate-treated mice; conditions: Hara et al. 2017, cited from earlier work
[5] = biological target: T2, serotonin 5-HT1A receptor; conditions: literature; cited from earlier work
[6] = test system: ASD mouse models (prenatal valproate, Cntnap2 knockout, NR1 hypomorph, BTBR); conditions: several ASD mouse models, literature; cited from earlier work
[7] = biological target: T3, serotonin 5-HT2B receptor; conditions: in vitro, literature; cited from earlier work
[8] = biological target: T2, serotonin 5-HT1A receptor; conditions: in vitro, literature; cited from earlier work
ASD patients = conditions: cited from earlier work
[9] = biological target: T3, serotonin 5-HT2B receptor; conditions: literature; cited from earlier work
dopamine D2 receptor [10] = biological target: T1, dopamine D2 receptor; conditions: cited from earlier work
dopamine D2 receptors = conditions: in vivo; cited from earlier work

T3 sequence (P41595 whole entry): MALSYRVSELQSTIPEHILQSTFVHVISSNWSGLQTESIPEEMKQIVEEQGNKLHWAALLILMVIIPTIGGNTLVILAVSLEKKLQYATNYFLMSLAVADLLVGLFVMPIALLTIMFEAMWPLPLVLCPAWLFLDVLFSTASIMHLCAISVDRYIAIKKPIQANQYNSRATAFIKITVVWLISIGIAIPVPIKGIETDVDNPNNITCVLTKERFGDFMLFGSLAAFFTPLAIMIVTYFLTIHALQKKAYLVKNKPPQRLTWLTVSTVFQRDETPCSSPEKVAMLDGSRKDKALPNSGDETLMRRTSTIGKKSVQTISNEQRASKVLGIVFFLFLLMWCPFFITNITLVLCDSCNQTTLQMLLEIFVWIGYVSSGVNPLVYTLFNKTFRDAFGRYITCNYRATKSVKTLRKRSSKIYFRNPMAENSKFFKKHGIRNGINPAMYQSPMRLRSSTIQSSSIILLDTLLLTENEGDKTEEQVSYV
T1 sequence (P14416 whole entry): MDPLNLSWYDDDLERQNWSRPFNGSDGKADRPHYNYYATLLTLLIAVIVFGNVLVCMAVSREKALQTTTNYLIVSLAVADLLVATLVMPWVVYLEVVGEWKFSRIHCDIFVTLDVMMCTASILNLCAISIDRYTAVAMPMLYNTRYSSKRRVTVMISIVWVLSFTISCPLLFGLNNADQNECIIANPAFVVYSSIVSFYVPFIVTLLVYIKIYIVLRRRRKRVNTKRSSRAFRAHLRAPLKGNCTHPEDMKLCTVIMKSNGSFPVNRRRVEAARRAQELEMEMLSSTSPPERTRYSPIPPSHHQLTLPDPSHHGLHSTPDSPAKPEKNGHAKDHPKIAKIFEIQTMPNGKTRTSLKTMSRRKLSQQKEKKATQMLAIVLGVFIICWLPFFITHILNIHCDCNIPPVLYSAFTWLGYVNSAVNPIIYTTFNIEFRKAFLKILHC

CC(N)Cc1c[nH]c2ccc(OCc3cccs3)cc12 (centres unmarked) [BW723C86]
effect on cognitive abilities (Fmr1 knock-out mice): improvement of cognitive abilities

O=C(N[C@H]1CC[C@H](CCN2CCN(c3cccc(Cl)c3Cl)CC2)CC1)N1CCOCC1 [Compound 2, trans-N-(4-{2-[4-(2,3-dichloro-phenyl)-piperazine-1-yl]-ethyl}-cyclohexyl)-morpholine-4 carboxamide]
functional character at dopamine D2 receptor (dopamine D2 receptor [1]): partial agonist | functional character at serotonin 5-HT1A receptor [2]: weak partial agonists | functional character at serotonin 5-HT2B receptor [3]: full antagonist

O=C1CCc2ccc(OCCCCN3CCN(c4cccc(Cl)c4Cl)CC3)cc2N1 [aripiprazole]
effect on core behavioral deficits ([4]; acute treatment): without effect | effect on core behavioral deficits ([4]; chronic administration): improved core behavioral deficits | functional character at serotonin 5-HT1A receptor [5]: partial agonist | effect on social behavior deficits [6]: neither aripiprazole nor risperidone could improve | affinity for 5-HT2B receptor (in words) [7]: high affinity | affinity for 5-HT1A receptor (in words) [8]: high affinity | lethargy/social withdrawal subscale of the Aberrant Behavioral Checklist (ASD patients; open label trials): did not improve

CN(C)C(=O)N[C@H]1CC[C@H](CCN2CCN(c3cccc(Cl)c3Cl)CC2)CC1 [cariprazine, trans-N-[4-[2-[4-(2,3-dichlorophenyl)piperazin-1-yl]ethyl]cyclohexyl]-N′,N′-dimethylurea]
functional character at serotonin 5-HT1A receptor [5]: weak partial agonists | intrinsic activity at serotonin 5-HT1A receptor [5]: 38% | functional character at serotonin 5-HT2B receptor [9]: full antagonist | functional character at dopamine D2 receptor (dopamine D2 receptor [10]): partial agonist

Cc1nc2n(c(=O)c1CCN1CCC(c3noc4cc(F)ccc34)CC1)CCCC2 [risperidone]
effect on core behavioral deficits ([4]; acute treatment): without effect | effect on core behavioral deficits ([4]; chronic administration): improved core behavioral deficits | effect on social behavior deficits [6]: neither aripiprazole nor risperidone could improve | occupancy of dopamine D2 receptors (dopamine D2 receptors): occupy dopamine D2 receptors | effect on core symptoms (ASD patients; children with pervasive developmental disorders with high baseline irritability): modest improvements
